Measured values reported in US20250169495A1, “COMPOSITIONS AND METHODS FOR CONTROLLING DROSOPHILA FLIES” (Rutgers, The State University of New Jersey, priority 2023, published 2025).

What was measured:
[1] = tested on: Drosophila suzukii; experiment: Field cage experiments, cultivated highbush blueberry bushes; type: in vivo
Method: Field cage experiments were conducted from June until July using highbush blueberries (V. corymbosum var. ‘Bluecrop’). The studies were carried out in 5.5 m long×2.7 m tall cages, constructed with a PVC pipe frame covered with No-See-Um mesh (Quest Outfitters Inc., Sarasota, FL, USA) (FIG. 6C). Cages were placed in separate rows within a blueberry field, with bushes spaced approx. 0.76 m apart within the rows and 3.05 m between rows. Each row contained two cages at least 9 m in distance. To avoid interference between treatments, alternate cages were used during testing, ensuring that no adjacent cages contained sachets simultaneously. Two, 3-m rebar poles were used to reinforce the mesh on the long sides of each cage as well as 10 cm long garden staples to hold mesh flush to the ground, while the shorter ends were secured with clips to allow access to the cage. Each cage contained five blueberry bushes approx. 1.5 m in height. Sachets containing ethyl butanoate, ethyl (E)-but-2-enoate, or 2-pentylfuran were prepared as described before. To test the effects of the repellents on the treated (focal) bush and in neighboring bushes at various distances, two sachets of the same compound were hung from one of the end bushes in each cage (FIG. 6D). There were four treatments: 1) ethyl butanoate, 2) ethyl (E)-but-2-enoate, 3) 2-pentylfuran, and 4) control (no repellent). Each treatment was replicated four times, with each cage assigned to a single treatment, resulting in a total of 16 cages. Twenty-four hours after deploying the sachets, 120 flies (approximately 60 males and 60 females) were released into each cage at 18:00 hrs (N=120 flies×4 treatments×4 replicates=1,920 total flies). To ensure even distribution within the cages, 30 flies were released at four equidistant points between the bushes. A pre-sampling of the berries, conducted before the flies were released, confirmed the absence of any infestation. Berries were then collected 1-, 2-, and 3-days post-treatment. From every other bush (starting at the focal bush) in the cage, 50 berries from the top half and 50 from the bottom half were collected into two separate 236.6 mL deli containers lined with two cotton pads. From each berry sample, a random subsample of 10 berries were examined and egg counts recorded before being returned to the original container. The blueberries were incubated on a light bench in the laboratory for up to two weeks, as previously described, and adult emergence was recorded. The sachets were weighed before deployment and 3 days after deployment to measure the emission rates of each compound. Field cage data for both oviposition and adult emergence were non-normal, so non-parametric tests were applied using R statistical software. The effects of ‘Treatment’ (untreated control, ethyl butanoate, ethyl (E)-but-2-enoate, and 2-pentylfuran) across ‘Bush Position’ (focal, center, end) and ‘Day After Treatment’ (1, 2, 3 DAT) were assessed using the Kruskal-Wallis Test. When significant Treatment effects were found, post-hoc separation was performed using Dunn's Test.

[2] = Emission rate from polyethylene sachets, semi-field cages; type: physicochemical; conditions: sachet with 2.5 mL, 24 h
Method: On the day of testing, two bushes were placed in each cage (FIG. 6B). Each bush in the tent was surrounded by a metal tomato cage. The bagged blueberry fruit clusters in the field were clipped and brought inside the cages. Clusters of 10 berries were created and placed in water picks. Five berry clusters were distributed randomly and evenly on each tomato cage at different heights using green twist ties (FIG. 6B). The sachets used for the treatments were prepared according to the methods described by Gale et al. (2024). They were constructed from 8 cm strips of polyethylene tubing (5.1 cm width, 2 MIL thickness; ULINE, Pleasant Prairie, WI, USA) and polyester felt (Grainger, Lake Forest, IL, USA). One end of the polyethylene tubing was sealed with an impulse sealer. A 5 cm strip of felt was placed inside the sachet's open end, and a 2.5 mL aliquot of each treatment was pipetted onto the felt. The open end was then sealed shut with the impulse sealer, entirely sealing the saturated felt. A hole was punched at the top of each sachet, away from the treatment area to avoid damaging the sealed section, and green twist ties were used to hang the sachets in the center of a bush (FIG. 6B). Before loading the sachets, the weights of the empty sachets were taken. The sachets were weighed again directly after loading with the compounds and then a final time after the 24-hour test period to measure the emission rates of each volatile. Finally, the emission rates of compounds in the semi-field and field cage studies were calculated by subtracting the final weight of the sachets from the initial weight and dividing by the time interval (24 h or 3 days). These rates were then compared across repellent treatments using ANOVA, with Tukey pairwise comparisons conducted when significant differences were found.

[3] = Emission rate from polyethylene sachets, field cages; type: physicochemical; conditions: field cage; sachets weighed before and 3 days after deployment
Source text: Twenty-four hours after deploying the sachets, 120 flies (approximately 60 males and 60 females) were released into each cage at 18:00 hrs (N=120 flies×4 treatments×4 replicates=1,920 total flies). To ensure even distribution within the cages, 30 flies were released at four equidistant points between the bushes. A pre-sampling of the berries, conducted before the flies were released, confirmed the absence of any infestation. Berries were then collected 1-, 2-, and 3-days post-treatment. From every other bush (starting at the focal bush) in the cage, 50 berries from the top half and 50 from the bottom half were collected into two separate 236.6 mL deli containers lined with two cotton pads. From each berry sample, a random subsample of 10 berries were examined and egg counts recorded before being returned to the original container. The blueberries were incubated on a light bench in the laboratory for up to two weeks, as previously described, and adult emergence was recorded. The sachets were weighed before deployment and 3 days after deployment to measure the emission rates of each compound. Finally, the emission rates of compounds in the semi-field and field cage studies were calculated by subtracting the final weight of the sachets from the initial weight and dividing by the time interval (24 h or 3 days). These rates were then compared across repellent treatments using ANOVA, with Tukey pairwise comparisons conducted when significant differences were found.

CCCCCc1ccco1 [2-pentylfuran, reference compound]
egg counts ([1]; 1 DAT, central bush): lower
egg counts ([1]; 1 DAT, end bush): fewest eggs
adult emergence ([1]; 3 DAT, center bush): lowest adult emergence
adult emergence ([1]; 3 DAT, focal bush): lowest adult emergence
mean emission rate (±SE) [2]: 82.3 ± 7.6 mg/h
emission rate (mean±SE) [3]: 559.73 ± 23.54 mg/day

CCCC(=O)OCC [ethyl butanoate]
mean emission rate (±SE) [2]: 70.4 ± 14.2 mg/h
emission rate (mean±SE) [3]: 697.97 ± 7.96 mg/day

C/C=C/C(=O)OCC [ethyl (E)-but-2-enoate]
adult emergence ([1]; 1 DAT, center bush): fewest adults emerge
adult emergence ([1]; 1 DAT, end bush): fewest adults emerge
egg counts ([1]; 1 DAT, end bush): fewest eggs
adult emergence ([1]; 2 DAT, center bush): fewest adults emerge
egg counts ([1]; 2 DAT, center bush): lowest egg counts
adult emergence ([1]; 2 DAT, end bush): fewest adults emerge
egg counts ([1]; 2 DAT, end bush): lowest egg counts
adult emergence ([1]; 3 DAT, center bush): lowest adult emergence
egg counts ([1]; 3 DAT, center bush): lowest egg count
adult emergence ([1]; 3 DAT, end bush): significantly different compared to the other repellents
egg counts ([1]; 3 DAT, end bush): lowest egg count
adult emergence ([1]; 3 DAT, focal bush): lowest adult emergence
egg counts ([1]; 3 DAT, focal bush): lowest egg count
mean emission rate (±SE) [2]: 54.9 ± 8.9 mg/h
emission rate (mean±SE) [3]: 679.23 ± 17.73 mg/day
